Results on 16 compounds are retold here after patent publication US20160106102A1, “KNOWN AND NEW HETEROCYCLIC COMPOUNDS AS PEST CONTROL AGENTS” (BAYER CROPSCIENCE AKTIENGESELLSCHAFT, priority 2013, published 2016).

The first data set concerns Myzus persicae. Put plainly: Myzus persicae - sachet test. Type of data set: in vivo. The settings on record: Myzus persicae; application rate of 6 ppm in nutrient medium; 100% = all animals killed; read-out: efficacy (kill in %). Summed up:
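Green peach aphids feed through a sealed sachet on nutrient medium containing the water-diluted formulation (solvents: 2% N-methylpyrrolidone, 2% diacetone alcohol). Percent mortality read after the chosen time; 100% means all animals killed.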
In the case of `Cc1cc(NC(=O)c2cccnc2)nn1-c1ncccn1` [Compound I-1-23, N-[5-Methyl-1-(pyrimidin-2-yl)-1H-pyrazol-3-yl]nicotinamide], the pest or weed control at 6 ppm was found to be 100%.
Turning to `Cc1cc(N(C)C(=O)c2cccnc2)nn1-c1ncccn1` [Compound I-1-25, N-Methyl-N-[5-methyl-1-(pyrimidin-2-yl)-1H-pyrazol-3-yl]nicotinamide], the pest or weed control at 6 ppm was determined as 100%.

The same data set, now with this note: Myzus persicae; application rate of 30 ppm in nutrient medium; 100% = all animals killed; read-out: efficacy (kill in %).
Consider `Cc1cc(NC(=O)c2cccnc2)nn1-c1ncccn1` [Compound I-1-23, N-[5-Methyl-1-(pyrimidin-2-yl)-1H-pyrazol-3-yl]nicotinamide], for which the pest or weed control at 30 ppm was determined as 100%.
`Cc1cc(N(C)C(=O)c2cccnc2)nn1-c1ncccn1` [Compound I-1-25, N-Methyl-N-[5-methyl-1-(pyrimidin-2-yl)-1H-pyrazol-3-yl]nicotinamide]: the pest or weed control at 30 ppm was found to be 100%.

Still in this data set, the particulars now being: application rate of 6 ppm in nutrient medium; 100% = all animals killed.
Turning to `Cc1cc(NC(=O)c2cccnc2)nn1C(=O)NCC1CCCCO1` (stereo not drawn) [Compound I-1-313], the “efficacy (kill in %)” value is 100%.
Consider `Cc1cc(NC(=O)c2cccnc2)nn1C(=O)CCS(C)(=O)=O` [Compound I-1-268], for which the “efficacy (kill in %)” value is recorded as 100%.
For the compound `Cc1cc(NC(=O)c2cccnc2)nn1Cn1nc(C)n(C)c1=O` [Compound I-1-143], the “efficacy (kill in %)” value stood at 100%.
On the same count and under the same terms, for `O=C(Nc1ccn(C(CF)CF)n1)c1cccnc1` [Compound I-1-65] the value was 100%.
Take `CC(C)=CCn1nc(NC(=O)c2cccnc2)cc1C` [Compound I-1-239]: the “efficacy (kill in %)” value is reported as 100%.
`CSCCC(=O)n1nc(NC(=O)c2cccnc2)cc1C` [Compound I-1-266]: the “efficacy (kill in %)” value is 100%.
On the same count and under the same terms, for `Cc1cc(NC(=O)c2cccnc2)nn1C1CCCCC1` [Compound I-1-204] the value was 80%; for `CCCC(C)NC(=O)n1nc(NC(=O)c2cccnc2)cc1C` (stereo not drawn) [Compound I-1-318], 100%; for `Cc1cc(NC(=O)c2cccnc2)nn1C(=O)NC(C)c1ncccn1` (stereo not drawn) [Compound I-1-333], 100%.
Same read-out and setting: next, `COCCN(CCOC)C(=O)n1nc(NC(=O)c2cccnc2)cc1C` [Compound I-1-169]: 100%; `Cc1cnn(Cn2nc(NC(=O)c3cccnc3)cc2C)c1` [Compound I-1-226]: 100%; `O=C(Nc1ccn(-c2ncccc2F)n1)c1cccnc1` [Compound I-1-30]: 100%.
Still for that read-out and setting: for `Cc1cc(NC(=O)c2cccnc2)nn1C(=O)Oc1ccccc1` [Compound I-1-233] the value was 100%; for `Cc1cc(NC(=O)c2cccnc2)nn1C(=O)NC(C)(C)c1ncccn1` [Compound I-1-335], 100%.

Staying with this data set, now noted: application rate of 30 ppm in nutrient medium; 100% = all animals killed.
On to `Cc1cc(NC(=O)c2cccnc2)nn1C(=O)NCC1CCCCO1` (stereo not drawn) [Compound I-1-313], for which the “efficacy (kill in %)” value was 100%.
As for `Cc1cc(NC(=O)c2cccnc2)nn1C(=O)CCS(C)(=O)=O` [Compound I-1-268], the “efficacy (kill in %)” value is 100%.
As to `Cc1cc(NC(=O)c2cccnc2)nn1Cn1nc(C)n(C)c1=O` [Compound I-1-143], the “efficacy (kill in %)” value was found to be 100%.
On the same count and under the same terms, for `O=C(Nc1ccn(C(CF)CF)n1)c1cccnc1` [Compound I-1-65] the value was 100%; for `CC(C)=CCn1nc(NC(=O)c2cccnc2)cc1C` [Compound I-1-239], 100%; for `CSCCC(=O)n1nc(NC(=O)c2cccnc2)cc1C` [Compound I-1-266], 100%.
On the same count and under the same terms, next, `Cc1cc(NC(=O)c2cccnc2)nn1C1CCCCC1` [Compound I-1-204]: 80%.
With `CCCC(C)NC(=O)n1nc(NC(=O)c2cccnc2)cc1C` (stereo not drawn) [Compound I-1-318], the “efficacy (kill in %)” value amounted to 100%.
Regarding `Cc1cc(NC(=O)c2cccnc2)nn1C(=O)NC(C)c1ncccn1` (stereo not drawn) [Compound I-1-333], the “efficacy (kill in %)” value was 100%.
Consider `COCCN(CCOC)C(=O)n1nc(NC(=O)c2cccnc2)cc1C` [Compound I-1-169], for which the “efficacy (kill in %)” value was 100%.
Turning to `Cc1cnn(Cn2nc(NC(=O)c3cccnc3)cc2C)c1` [Compound I-1-226], the “efficacy (kill in %)” value is recorded as 100%.
Same read-out and setting: next, `O=C(Nc1ccn(-c2ncccc2F)n1)c1cccnc1` [Compound I-1-30]: 100%.
As for `Cc1cc(NC(=O)c2cccnc2)nn1C(=O)Oc1ccccc1` [Compound I-1-233], the “efficacy (kill in %)” value is given as 100%.
Turning to `Cc1cc(NC(=O)c2cccnc2)nn1C(=O)NC(C)(C)c1ncccn1` [Compound I-1-335], the “efficacy (kill in %)” value was found to be 100%.

The next data set relates to Myzus persicae. Put plainly: Myzus persicae - spray test. Type of data set: in vivo. The settings on record: Myzus persicae, foliar, 144 h; application rate of 500 g/ha; after 6 days; sprayed Chinese cabbage leaf discs infested by all stages; 100% = all aphids killed; read-out: efficacy in %. The method, then:
Myzus persicae—spray test Solvent: 78 parts by weight of acetone • • 1.5 parts by weight of dimethylformamide Emulsifier: 0.5 part by weight of alkylaryl polyglycol ether To produce an appropriate active ingredient formulation, 1 part by weight of active ingredient is mixed with the specified amounts of solvent and emulsifier, and the concentrate is diluted to the desired concentration with emulsifier-containing water. Discs of Chinese cabbage leaves (Brassica pekinensis) infested by all stages of the green peach aphid (Myzus persicae) are sprayed with an active ingredient formulation of the desired concentration. After 6 days, the efficacy in % is determined. 100% means that all the aphids have been killed; 0% means that no aphids have been killed.
Regarding `Cc1cc(NC(=O)c2cccnc2)nn1-c1ncccn1` [Compound I-1-23, N-[5-Methyl-1-(pyrimidin-2-yl)-1H-pyrazol-3-yl]nicotinamide], the pest or weed control at 500 g/ha stood at 100%.
Same read-out and setting: next, `Cc1cc(N(C)C(=O)c2cccnc2)nn1-c1ncccn1` [Compound I-1-25, N-Methyl-N-[5-methyl-1-(pyrimidin-2-yl)-1H-pyrazol-3-yl]nicotinamide]: 100%.

Staying with this data set, now noted: application rate of 500 g/ha; after 6 days; sprayed Chinese cabbage leaf discs infested by all stages; 100% = all aphids killed.
The compound `Cc1cc(NC(=O)c2cccnc2)nn1C(=O)NCC1CCCCO1` (stereo not drawn) [Compound I-1-313] yielded an efficacy in % of 90%.
Consider `Cc1cc(NC(=O)c2cccnc2)nn1C(=O)CCS(C)(=O)=O` [Compound I-1-268], for which the efficacy in % was 100%.
On to `Cc1cc(NC(=O)c2cccnc2)nn1Cn1nc(C)n(C)c1=O` [Compound I-1-143], for which the efficacy in % came to 90%.
On to `O=C(Nc1ccn(C(CF)CF)n1)c1cccnc1` [Compound I-1-65], for which the efficacy in % turned out to be 90%.
With `CC(C)=CCn1nc(NC(=O)c2cccnc2)cc1C` [Compound I-1-239], the efficacy in % turned out to be 90%.
With `CSCCC(=O)n1nc(NC(=O)c2cccnc2)cc1C` [Compound I-1-266], the efficacy in % is recorded as 90%.
In the case of `Cc1cc(NC(=O)c2cccnc2)nn1C1CCCCC1` [Compound I-1-204], the efficacy in % was determined as 90%.
In turn, `CCCC(C)NC(=O)n1nc(NC(=O)c2cccnc2)cc1C` (stereo not drawn) [Compound I-1-318] showed an efficacy in % of 90%.
In turn, `Cc1cc(NC(=O)c2cccnc2)nn1C(=O)NC(C)c1ncccn1` (stereo not drawn) [Compound I-1-333] yielded an efficacy in % of 90%.
Same read-out and setting: next, `COCCN(CCOC)C(=O)n1nc(NC(=O)c2cccnc2)cc1C` [Compound I-1-169]: 100%; `Cc1cnn(Cn2nc(NC(=O)c3cccnc3)cc2C)c1` [Compound I-1-226]: 100%; `O=C(Nc1ccn(-c2ncccc2F)n1)c1cccnc1` [Compound I-1-30]: 90%.
The compound `Cc1cc(NC(=O)c2cccnc2)nn1C(=O)Oc1ccccc1` [Compound I-1-233] returned an efficacy in % of 90%.
`Cc1cc(NC(=O)c2cccnc2)nn1C(=O)NC(C)(C)c1ncccn1` [Compound I-1-335] gave an efficacy in % of 90%.

System in another data set: not listed separately
Description: log P determination by LC-MS in the acidic range. The settings on record: LC-MS in the acidic range. Type of data set: physicochemical. The source says: The LC-MS determination in the acidic range is effected at pH 2.7 using 0.1% aqueous formic acid and acetonitrile (contains 0.1% formic acid) as eluents, linear gradient from 10% acetonitrile to 95% acetonitrile. Alternatively, the determination is effected in the acidic range at pH 2.3 using 0.1% aqueous phosphoric acid and acetonitrile as eluents; linear gradient from 10% acetonitrile to 95% acetonitrile.
Consider `Cc1cc(NC(=O)c2cccnc2)nn1C(=O)NCC1CCCCO1` (stereo not drawn) [Compound I-1-313], for which the “log P (acid)” value was 1.78.
On the same count and under the same terms, next, `Cc1cc(NC(=O)c2cccnc2)nn1C(=O)CCS(C)(=O)=O` [Compound I-1-268]: 1.04; `Cc1cc(NC(=O)c2cccnc2)nn1Cn1nc(C)n(C)c1=O` [Compound I-1-143]: 0.72; `O=C(Nc1ccn(C(CF)CF)n1)c1cccnc1` [Compound I-1-65]: 0.84.
As for `CC(C)=CCn1nc(NC(=O)c2cccnc2)cc1C` [Compound I-1-239], the “log P (acid)” value came to 1.75.
Regarding `CSCCC(=O)n1nc(NC(=O)c2cccnc2)cc1C` [Compound I-1-266], the “log P (acid)” value was 1.87.
Consider `Cc1cc(NC(=O)c2cccnc2)nn1C1CCCCC1` [Compound I-1-204], for which the “log P (acid)” value worked out at 2.02.
Turning to `CCCC(C)NC(=O)n1nc(NC(=O)c2cccnc2)cc1C` (stereo not drawn) [Compound I-1-318], the “log P (acid)” value is 2.18.
Same read-out and setting: for `Cc1cc(NC(=O)c2cccnc2)nn1C(=O)NC(C)c1ncccn1` (stereo not drawn) [Compound I-1-333] the value was 1.29; for `COCCN(CCOC)C(=O)n1nc(NC(=O)c2cccnc2)cc1C` [Compound I-1-169], 1.91; for `Cc1cnn(Cn2nc(NC(=O)c3cccnc3)cc2C)c1` [Compound I-1-226], 1.24.
The same measure, in the same setting: for `O=C(Nc1ccn(-c2ncccc2F)n1)c1cccnc1` [Compound I-1-30] the value was 1.15; for `Cc1cc(NC(=O)c2cccnc2)nn1C(=O)Oc1ccccc1` [Compound I-1-233], 2; for `Cc1cc(NC(=O)c2cccnc2)nn1C(=O)NC(C)(C)c1ncccn1` [Compound I-1-335], 1.67.

Staying with this data set, now noted: pH 2.7, LC-MS in the acidic range; read-out: log P (acid).
In the case of `Cc1cc(NC(=O)c2cccnc2)nn1-c1ncccn1` [Compound I-1-23, N-[5-Methyl-1-(pyrimidin-2-yl)-1H-pyrazol-3-yl]nicotinamide], the chromatographic logP is 1.16.
Consider `Cc1cc(N(C)C(=O)c2cccnc2)nn1-c1ncccn1` [Compound I-1-25, N-Methyl-N-[5-methyl-1-(pyrimidin-2-yl)-1H-pyrazol-3-yl]nicotinamide], for which the chromatographic logP is 1.02.

The same data set, now with this note: pH 2.7, values given in the synthesis examples and NMR lists; read-out: HPLC-MS: log P.
For `Cc1cc(NC(=O)c2cccnc2)nn1-c1ncccn1` [Compound I-1-23, N-[5-Methyl-1-(pyrimidin-2-yl)-1H-pyrazol-3-yl]nicotinamide], the chromatographic logP worked out at 1.14.
Consider `Cc1cc(N(C)C(=O)c2cccnc2)nn1-c1ncccn1` [Compound I-1-25, N-Methyl-N-[5-methyl-1-(pyrimidin-2-yl)-1H-pyrazol-3-yl]nicotinamide], for which the chromatographic logP is 1.02.
